Patent US20080234288A1, “Hcv Inhibiting Sulfonamides” (priority 2003, published 2008)
Where a name gives a salt, the structure may show the parent alone.

What follows are molecules tested on HCV replicon (NS3-NS5B regions of HCV type 1b) in Huh-7 luc/neo cells (assay: HCV replicon assay, stable replicon cell reporter assay (Huh-Luc, luciferase)). Conditions: Hepatitis C virus, Huh-7, 72 h, incubation of three days, luciferase activity.
Format: cell-based
From the text: The compounds of the present invention were examined for activity in the inhibition of HCV RNA replication in a cellular assay. […] The cellular assay was based on a bicistronic expression construct, as described by Lohmann et al. (1999) Science vol. 285 pp. 110-113 with modifications described by Krieger et al. (2001) Journal of Virology 75: 4614-4624, in a multi-target screening strategy. In essence, the method is as follows.
The assay utilized the stably transfected cell line Huh-7 luc/neo (hereafter referred to as Huh-Luc; kindly provided by Dr Ralf Bartenschlager, Reblikon GmBh, Germany). This cell line harbors an RNA encoding a bicistronic expression construct comprising the wild type NS3-NS5B regions of HCV type 1b translated from an Internal Ribosome Entry Site (IRES) from encephalomyocarditis virus (EMCV), preceded by a reporter portion (FfL-luciferase), and a selectable marker portion (neo^R, neomycine phosphotransferase). The construct was bordered by 5′ and 3′ NTRs (non-translated regions) from HCV type 1b. Continued culture of the replicon cells in the presence of G418 (neo^R) is dependent on the replication of the HCV RNA. The stably transfected replicon cells that express HCV RNA, which replicates autonomously and to high levels, encoding inter alia luciferase, were used for screening the antiviral compounds.
The replicon cells were plated in 384 well plates in the presence of the test and control compounds which were added in various concentrations. Following an incubation of three days, HCV replication was measured by assaying luciferase activity (using standard luciferase assay substrates and reagents and a Perkin Elmer ViewLux™ ultraHTS microplate imager). Replicon cells in the control cultures have high luciferase expression in the absence of any inhibitor. The inhibitory activity of the compound on luciferase activity was monitored on the Huh-Luc cells, enabling a dose-response curve for each test compound. EC50 values were then calculated, which value represents the amount of the compound required to decrease by 50% the level of detected luciferase activity, or more specifically, the ability of the genetically linked HCV replicon RNA to replicate (Table 1).
In the case of `CC(=O)Nc1nc2ccc(S(=O)(=O)N(CC(C)C)CC(O)C(Cc3ccccc3)NC(=O)OCc3cncs3)cc2o1` (centres unmarked) [Compound 1, {3-[(2-Acetylamino-benzooxazole-6-sulfonyl)-isobutyl-amino]-1-benzyl-2-hydroxy-propyl}-carbamic acid thiazol-5-ylmethyl ester], the EC50 is reported as 2 to 10 µM.
`CCOC(=O)Nc1nc2ccc(S(=O)(=O)N(CC(C)C)CC(O)C(Cc3ccccc3)NC(=O)OCc3cncs3)cc2o1` (centres unmarked) [Compound 2, (6-{[2-Hydroxy-4-phenyl-3-(thiazol-5-ylmethoxycarbonyl-amino)-butyl]-isobutyl-sulfamoyl}-benzooxazol-2-yl)-carbamic acid ethyl ester] gave an EC50 of 10 to 32 µM.
In the case of `CC(C)CN(CC(O)C(Cc1ccccc1)NC(=O)OCc1cncs1)S(=O)(=O)c1ccc2nc(NC(=O)c3ccc(O)nc3)oc2c1` (centres unmarked) [Compound 3, [1-Benzyl-2-hydroxy-3-({2-[(6-hydroxy-pyridine-3-carbonyl)-amino]-benzooxazole-6-sulfonyl}-isobutyl-amino)-propyl]-carbamic acid thiazol-5-ylmethyl ester], the EC50 is reported as under 2 µM.
Molecule `CC(C)CN(CC(O)C(Cc1ccccc1)NC(=O)OCc1cncs1)S(=O)(=O)c1ccc2nc(NC(=O)c3cccnc3)oc2c1` (centres unmarked) [Compound 4, [1-Benzyl-2-hydroxy-3-(isobutyl-{2-[(pyridine-3-carbonyl)-amino]-benzooxazole-6-sulfonyl}-amino)-propyl]-carbamic acid thiazol-5-ylmethyl ester] has an EC50 of 2 to 10 µM.
Molecule `CC(C)CN(CC(O)C(Cc1ccccc1)NC(=O)OCc1cncs1)S(=O)(=O)c1ccc2nc(N3CCCC3)oc2c1` (centres unmarked) [Compound 5, {1-Benzyl-2-hydroxy-3-[isobutyl-(2-pyrrolidin-1-yl-benzo-oxazole-6-sulfonyl)-amino]-propyl}-carbamic acid thiazol-5-ylmethyl ester] has an EC50 of 2 to 10 µM.
With `CC(C)CN(CC(O)C(Cc1ccccc1)NC(=O)OCc1cncs1)S(=O)(=O)c1ccc2nc(N(C)CCN3CCCC3)oc2c1` (centres unmarked) [Compound 6, {1-Benzyl-2-hydroxy-3-(isobutyl-{2-[methyl-(2-pyrrolidin-1-yl-ethyl)-amino]-benzooxazole-6-sulfonyl}-amino)-propyl]-carbamic acid thiazol-5-ylmethyl ester] the EC50 was 10 to 32 µM.
`CC(C)CN(CC(O)C(Cc1ccccc1)NC(=O)OCc1cncs1)S(=O)(=O)c1ccc2nc(NC(=O)CN3CCN(C)CC3)oc2c1` (centres unmarked) [Compound 7, [1-Benzyl-2-hydroxy-3-(isobutyl-{2-[2-(4-methyl-piperazin-1-yl)-acetylamino]-benzooxazole-6-sulfonyl}-amino)-propyl]-carbamic acid thiazol-5-ylmethyl ester] showed an EC50 of 2 to 10 µM.
`CC(C)CN(CC(O)C(Cc1ccccc1)NC(=O)OCc1cncs1)S(=O)(=O)c1ccc2nc(N(C)C(=O)C3CCC(=O)N3)oc2c1` (centres unmarked) [Compound 8, [1-Benzyl-2-hydroxy-3-(isobutyl-{2-[methyl-(5-oxo-pyrrolidine-2-carbonyl)-amino]-benzooxazole-6-sulfonyl}-amino)-propyl]-carbamic acid thiazol-5-ylmethyl ester] was tested, and the EC50 was 10 to 32 µM.
Work on `CC(C)CN(CC(O)C(Cc1ccccc1)NC(=O)OCc1cncs1)S(=O)(=O)c1ccc2nc(N(C)C(=O)c3ccncc3)oc2c1` (centres unmarked) [Compound 9, [1-Benzyl-2-hydroxy-3-(isobutyl-{2-[methyl-(pyridine-4-carbonyl)-amino]-benzooxazole-6-sulfonyl}-amino)-propyl]-carbamic acid thiazol-5-ylmethyl ester] yielded an EC50 of 10 to 32 µM.
`CC(C)CN(CC(O)C(Cc1ccccc1)NC(=O)OCc1cncs1)S(=O)(=O)c1ccc2nc(N(C)C(=O)c3ccoc3)oc2c1` (centres unmarked) [Compound 10, [1-Benzyl-3-({2-[(furan-3-carbonyl)-methyl-amino]-benzo-oxazole-6-sulfonyl}-isobutyl-amino)-2-hydroxy-propyl]-carbamic acid thiazol-5-ylmethyl ester] was tested, and the EC50 was 2 to 10 µM.
Work on `CC(C)CN(CC(O)C(Cc1ccccc1)NC(=O)OCc1cncs1)S(=O)(=O)c1ccc2nc(NC(=O)C3CCCN3C)oc2c1` (centres unmarked) [Compound 11, [1-Benzyl-2-hydroxy-3-(isobutyl-{2-[(1-methyl-pyrrolidine-2-carbonyl)-amino]-benzooxazole-6-sulfonyl}-amino)-propyl]-carbamic acid thiazol-5-ylmethyl ester] yielded an EC50 of 2 to 10 µM.
Work on `CC(C)CN(CC(O)C(Cc1ccccc1)NC(=O)OCc1cncs1)S(=O)(=O)c1ccc2ncn(Cc3ccccc3)c2c1` (centres unmarked) [Compound 12, [1-Benzyl-3-[(3-benzyl-3H-benzoimidazole-5-sulfonyl)-isobutyl-amino]-2-hydroxy-propyl}-carbamic acid thiazol-5-ylmethyl ester] yielded an EC50 of 2 to 10 µM.
`CC(C)CN(CC(O)C(Cc1ccccc1)NC(=O)OCc1cncs1)S(=O)(=O)c1ccc2nc(N)sc2c1` (centres unmarked) [Compound 13, {3-[(2-Amino-benzothiazole-6-sulfonyl)-isobutyl-amino]-1-benzyl-2-hydroxy-propyl}-carbamic acid thiazol-5-ylmethyl ester] showed an EC50 of 2 to 10 µM.
`CC(C)CN(CC(O)C(Cc1ccccc1)NC(=O)OCc1cncs1)S(=O)(=O)c1ccc2nc(NCCN(C)C)sc2c1` (centres unmarked) [Compound 14, (1-Benzyl-3-{[2-(2-dimethylamino-ethylamino)-benzo-thiazole-6-sulfonyl]-isobutyl-amino}-2-hydroxy-propyl)-carbamic acid thiazol-5-ylmethyl ester] was tested, and the EC50 was 2 to 10 µM.
Work on `CC(C)CN(CC(O)C(Cc1ccccc1)NC(=O)OCc1cncs1)S(=O)(=O)c1ccc2nc(NCCN3CCCC3)sc2c1` (centres unmarked) [Compound 15, (1-Benzyl-2-hydroxy-3-{isobutyl-[2-(2-pyrrolidin-1-yl-ethyl-amino)-benzothiazole-6-sulfonyl]-amino}-propyl)-carbamic acid thiazol-5-ylmethyl ester] yielded an EC50 of 2 to 10 µM.
In the case of `CC(C)CN(CC(O)C(Cc1ccccc1)NC(=O)OCc1cncs1)S(=O)(=O)c1ccc2nc(NCCCN(C)C)sc2c1` (centres unmarked) [Compound 17, (1-Benzyl-3-{[2-(3-dimethylamino-propylamino)-benzo-thiazole-6-sulfonyl]-isobutyl-amino}-2-hydroxy-propyl)-carbamic acid thiazol-5-ylmethyl ester], the EC50 is reported as 10 to 32 µM.
Work on `CC(C)CN(CC(O)C(Cc1ccccc1)NC(=O)OCc1cncs1)S(=O)(=O)c1ccc2nc(NCCN3CCNCC3)sc2c1` (centres unmarked) [Compound 18, (1-Benzyl-2-hydroxy-3-{isobutyl-[2-(2-piperazin-1-yl-ethyl-amino)-benzothiazole-6-sulfonyl]-amino}-propyl)-carbamic acid thiazol-5-ylmethyl ester] yielded an EC50 of 2 to 10 µM.
`CC(C)CN(CC(O)C(Cc1ccccc1)NC(=O)OCc1cncs1)S(=O)(=O)c1ccc2nc[nH]c2c1` (centres unmarked) [Compound 20, {3-[(3H-Benzoimidazole-5-sulfonyl)-isobutyl-amino]-1-benzyl-2-hydroxy-propyl}-carbamic acid thiazol-5-ylmethyl ester] was tested, and the EC50 was 10 to 32 µM.
`CC(=O)N(C)c1nc2ccc(S(=O)(=O)N(CC(C)C)CC(O)C(Cc3ccccc3)NC(=O)OCc3cncs3)cc2s1` (centres unmarked) [Compound 21, (3-{[2-(Acetyl-methyl-amino)-benzothiazole-6-sulfonyl]-isobutyl-amino}-1-benzyl-2-hydroxy-propyl)-carbamic acid thiazol-5-ylmethyl ester] showed an EC50 of 10 to 32 µM.
Molecule `Nc1nc2ccc(S(=O)(=O)N(Cc3ccccn3)CC(O)C(Cc3ccccc3)NC(=O)OCc3cncs3)cc2o1` (centres unmarked) [Compound 22, {3-[(2-Amino-benzooxazole-6-sulfonyl)-pyridin-2-ylmethyl-amino]-1-benzyl-2-hydroxy-propyl}-carbamic acid thiazol-5-ylmethyl ester trifluoroacetate salt] has an EC50 of over 32 µM.

Same assay, conditions: incubation of three days, luciferase activity
`CC(C)CN(CC(O)C(Cc1ccccc1)NC(=O)OCc1cncs1)S(=O)(=O)c1ccc2nc(N)oc2c1` (centres unmarked) [Compound 19, {3-[(2-Amino-benzooxazole-6-sulfonyl)-isobutyl-amino]-1-benzyl-2-hydroxy-propyl}-carbamic acid thiazol-5-ylmethyl ester] was tested, and the EC50 was 2 to 10 µM.
Molecule `CC(C)CN(CC(O)C(Cc1ccccc1)NC(=O)OCc1cncs1)S(=O)(=O)c1ccc2nc(NC(=O)C3CCC(=O)N3)oc2c1` (centres unmarked) [Compound 23, [1-Benzyl-2-hydroxy-3-(isobutyl-{2-[(5-oxo-pyrrolidine-2-carbonyl)-amino]-benzooxazole-6-sulfonyl}-amino)-propyl]-carbamic acid thiazol-5-yl methyl ester] has an EC50 of 10 to 32 µM.
`CC(C)CN(CC(O)C(Cc1ccccc1)NC(=O)OCc1cncs1)S(=O)(=O)c1ccc2nc(NC(=O)C3CCC(=O)N3)oc2c1` (centres unmarked) [Compound 24, [1-Benzyl-2-hydroxy-3-(isobutyl-{2-[(5-oxo-pyrrolidine-2-carbonyl)-amino]-benzooxazole-6-sulfonyl}-amino)-propyl]-carbamic acid thiazol-5-yl methyl ester] was tested, and the EC50 was 2 to 10 µM.
